# Assay results taken from patent publication US20160109459A1, “Compositions And Methods For Heparan Sulfate As A Biomarker For Transplant Rejection” (Duke University, priority 2012, published 2016).
# What was measured:
# [1] = test system: purified T cells from C57BL/6 mice stimulated with bone marrow-derived BALB/c DCs; assay: Allogeneic T cell proliferation assay (3H-thymidine incorporation, IFN-γ ELISA); format: cell-based, mouse; conditions: for alloreactive T cell proliferation compared to media alone: WT BALB/c DCs + C57BL/6 T cells, 72 h then 3H-thymidine 16 h, HS 100 μg/mL, HSP70 5 μg/mL, C12-iE-DAP 1 μg/mL, L18-MDP 1 μg/mL
# Protocol: Cells were co-cultured either alone (media) or in the presence of LPS (100 ng/mL), Pam3CSK4 (2 μg/mL), hyaluronan (HA) (100 μg/mL), sonicated-HA (sHA) (100 μg/mL), fibronectin (FN) (100 μg/mL), fibrinogen (Fbn) (100 μg/mL), heparan sulfate (HS) (100 μg/mL), HSP70 (5 μg/mL), HMGB1 (1 μg/mL), C12-iE-DAP (1 μg/mL), or L18-MDP (1 μg/mL) for 72 hours, and then pulsed ^3H-thymidine for 16 hours. Proliferation was determined by ^3H incorporation and results are expressed as cpm±SEM. Baseline alloreactivity is indicated by the dotted line; *p<0.05 compared with media alone. […] Results are representative of three independent experiments.
# T cell proliferation assay: DCs were generated from bone marrow as previously described. (Yang, Y. (2004) Nat. Immunol. 5:508-15). CD3^+ T cells were isolated from B6 mice using a CD3 negative selection magnetic bead kit (Invitrogen, Carlsbad, United States). Proliferation assays were performed as previously described. (Brennan, T. V. et al. (2008) Transplantation 85:247-55).
# Purified T cells from C57BL/6 mice were stimulated with bone marrow-derived DCs from BALB/c mice and their proliferation was measured by the incorporation of ^3H-thymidine. DAMPs tested included proteins—fibronectin (FN), fibrinogen (Fbn), heat shock protein 70 (HSP70), and high-mobility group protein B1 (HMGB1); and glucosaminoglycans—heparan sulfate (HS) and hyaluronan (HA). For comparison, two well-described PAMPs, lipopolysaccharide (LPS) and a synthetic tripalmitoylated lipopeptide (Pam3CSK4) that are ligands of the TLR4 homodimer and the TLR1/2 heterodimer, respectively, were tested. As nucleotide-binding domain, leucine-rich repeat containing receptors (NLRB) are another family of innate immune receptors, ligands of NLR1 (C12-iE-DAP) and NLR2 (L18-MDP) were further tested.
# Next, to investigate whether HS enhanced proliferation of allogeneic T cells was due to the stimulation of TLRs on DCs or T cells, because MyD88 is a common adaptor protein involved in the signal transduction of all TLRs with the exception of TLR3^9, HS was tested against DCs or T cells that were deficient for MyD88. For this purpose, T cells from WT or MyD88^−/− C57BL/6 mice were stimulated with DCs from WT or MyD88^−/− BALB/c mice in an allogeneic proliferation assay in the presence of HS, LPS, Pam3CSK4, or media alone.
# HS has been shown as a TLR4 ligand, (Johnson, G. B. et al., (2002) J. Immunol. 168:5233-39; Johnson, G. B., Brunn, G. J. & Platt, J. L. (2004) J. Immunol. 172:20-24). To determine whether the absence of TLR4 expression on stimulating DCs would reduce HS-induced alloreactive T cell proliferation equivalent to MyD88 deficiency, purified T cells from C57BL/6 mice were co-cultured with irradiated WT, TLR4^−/−, and MyD88^−/− BALB/c DCs and proliferation was measured by the incorporation of ^3H-thymidine.
# Cytokine analysis: Cell culture supernatants were obtained from DC cultures or T cell proliferation assays and assayed for IL-6, IL-12 and IFN-γ by ELISA (BD Biosciences) according to the manufacturer's standard protocols. HEK 293 supernatants were tested for human IL-8 by ELISA (BioLegend, San Diego, United States).
# Allogenic heart transplants were performed between C57BL/6 donors and (BALB/c x DBA.1)F1 recipients. Serum HS was measured by ELISA Immunohistologic staining for HS and CD3 was performed on heart tx tissue. Bone marrow derived dendritic cells (DCs) and purified T cells from WT-, MyD88- or TLR4-deficient mice were used in MLR assays to test for proliferation and cytokine production in response to HS. CD40 and CD80 expression on stimulated DCs was measured by FACS. T cell proliferation was determined by ^3H-thymidine incorporation and CFSE dye dilution assay. HEK293 NF-kB-luciferase reporter cell lines stably expressing CD14, MD2, and TLR4 or TLR2 were used in assays of HS activity.
# [2] = test system: BALB/c recipients of B10.D2 Allo-BM+LC (GVHD); assay: Murine Allo-HSCT model of GVHD (B10.D2→BALB/c); format: in vivo, mouse
# Protocol: BALB/c recipient of B10.D2 Allo-BM+LC were treated with subcutaneous injections of the HS mimetic, PG545 (20 mg/kg in PBS), or PBS control once weekly, beginning 1 day prior to Allo-HSCT. […] FIG. 9C is a graph showing survival analysis of Allo-BM+LC+PG545 (n=10) compared to Allo-BM+LC+PBS (n=10).
# Antibodies and flow cytometry: Anti-CD40 (HM40-3), anti-CD80 (16-10A1), anti-Thy1.1 (OX-7), anti-Ly5.1 (A20) anti-IFN-γ (XMG1.2), rat IgG1 isotype (R3-34), and the BrdU Flow Kit (FITC-labeled) were from BD Biosciences (San Jose, Calif., USA). Intracellular IFN-γ staining was performed as previously described. […] For in vivo BrdU labeling, mice were injected with 50 μg BrdU/gm i.p. 1 hour prior to analysis. Collection of flow cytometric data was acquired using a FACSCanto (BD Biosciences), and events were analyzed using FloJo software (Tree Star, Inc., Ashland, United States). […]
# Allo-HSCT: For Allo-HSCT, wild-type (WT) and TLR4−/− BALB/c mice received myeloablative total-body irradiation (8.5 Gy) followed by intravenous infusion of 1×10^7 B10.D2 or BALB/c T-cell depleted bone marrow (TCD-BM). […] To induce GVHD, 5×10^6 lymph node cells from inguinal, axillary, cervical and mesenteric lymph nodes of B10.D2 or BALB/c mice were injected intravenously in addition to TCD-BM.
# (§1) In another model of acute GVHD, 5×10^6 lymph node cells and 1×10^7 TCD BM from C3H.SW were transferred to C57BL/6 recipients irradiated with 10 Gy. HSCT recipients of these two GVHD models then received either intraperitoneal (i.p.) injections of 2 mg of al-antitrypsin (A1AT, Aralast™, Baxter, Deerfield, United States) resuspended in 200 μL sterile phosphate-buffered saline (PBS), subcutaneous (s.c.) injections of 20 mg/kg PG545 (Progen Pharmaceuticals Limited, Queensland, Australia) in 200 μL PBS, or 200 μL PBS alone at the indicated intervals.
# In this model, lethally irradiated BALB/c mice were transplanted with 1×10^7 T cell-depleted bone marrow (TCD-BM) and 5×10^6 lymphocytes (LCs) from B10.D2 mice (Allo-BM+LC). Control mice received B10.D2 TCD-BM only (Allo-BM only) or syngeneic BALB/c TCD-BM and 5×10^6 BALB/c LCs (Syn-BM+LC).
# [3] = test system: C57BL/6 recipients of C3H.SW TCD-BM and LCs (GVHD); assay: Second GVHD model (C3H.SW→C57BL/6); format: in vivo, mouse; conditions: A1AT 2 mg i.p. every 3 days; p=0.032
# Protocol: FIG. 7A is a graph showing serum HS concentrations at the indicated time points following Allo-HSCT (B10.D2→BALB/c; 1×10^7 B10.D2 TCD-BM and 5×10^6 B10.D2 LC) treated with A1AT (2 mg) or PBS every 3 days by i.p. injection, starting 1 day prior to transplantation; n=3 per data point, as determined by ELISA assay; *p<0.05. FIG. 7B is a graph showing survival and FIG. 7C is a graph showing GVHD clinical score of Allo-BM only (n=5) or Allo-BM+LC treated with A1AT (n=8) or PBS (n=5). Data is from one of two independent experiments with identical results. […] Survival of BALB/c recipients of Allo-BM+LC from B10.D2 donors (n=11) and TLR4^−/− BALB/c recipients of Allo-BM+LC from B10.D2 donors administered A1AT (n=8) or PBS (n=14) every 3 days by intraperitoneal injection, starting 1 day prior to transplantation.
# as §1, with “intervals. […]” for “intervals.”
# BALB/c DCs = assay: DC maturation: surface expression of CD40 and CD80 by FACS; format: cell-based, mouse; conditions: 24 h; HS 100 μg/mL, Pam3CSK4 2 μg/mL
# Protocol: FIG. 3A is a graph showing WT, TLR4^−/−, or MyD88^−/− BALB/c DCs (2×10^5/well) were stimulated with LPS (100 ng/mL), HS (100 μg/mL), or Pam3CSK4 (2 μg/mL), or left unstimulated (media) for 24 hours, and measured for surface expression of co-stimulatory molecules CD40 and CD80 by FACS analysis. FIGS. 3B and 3C are graphs showing WT, MyD88^−/−, and TLR4^−/− BALB/c cultured DCs were co-cultured with media alone, LPS, HS, or Pam3CSK4 as in (A) and culture supernatants were tested for IL-6 (B) and IL-12 (C) by ELISA. Data are representative of three independent experiments; *p<0.05 compared with media alone.
# To investigate how activation of DCs by HS promoted the alloreactive T cell response, an as DC maturation and production of pro-inflammatory cytokines are key initial events in triggering adaptive immune responses, the ability of HS to upregulate DC expression of costimulatory molecules, CD40 and CD80, and pro-inflammatory cytokines, IL-6 and IL-12 was tested.
# Antibodies and flow cytometry: Anti-CD40 (HM40-3), anti-CD80 (16-10A1), anti-Thy1.1 (OX-7), anti-Ly5.1 (A20) anti-IFN-γ (XMG1.2), rat IgG1 isotype (R3-34), and the BrdU Flow Kit (FITC-labeled) were from BD Biosciences (San Jose, Calif., USA). Intracellular IFN-γ staining was performed as previously described. (Brennan, T. V. et al. (2008) Transplantation 85:247-55). For in vivo BrdU labeling, mice were injected with 50 μg BrdU/gm i.p. 1 hour prior to analysis. Collection of flow cytometric data was acquired using a FACSCanto (BD Biosciences), and events were analyzed using FloJo software (Tree Star, Inc., Ashland, United States).
# [4] = splenocytes six days after transplantation, vs PBS
compound,measurement,setting,value
"CCCCCCCCCCCC(=O)N[C@H](CCC(=O)NC(CCCC(N)C(=O)O)C(=O)O)C(=O)O (some centres unmarked) [C12-iE-DAP, reference compound]",alloreactive T cell proliferation compared to media alone,[1],Neither of the NLR ligands tested produced a significant increase
"CC(C)CCC[C@@H](C)[C@H]1CC[C@H]2[C@@H]3CC[C@H]4C[C@@H](O[C@@H]5O[C@H](COS(=O)(=O)O)[C@@H](O[C@H]6O[C@H](COS(=O)(=O)O)[C@@H](O[C@H]7O[C@H](COS(=O)(=O)O)[C@@H](O[C@H]8O[C@H](COS(=O)(=O)O)[C@@H](OS(=O)(=O)O)[C@H](OS(=O)(=O)O)[C@H]8OS(=O)(=O)O)[C@H](OS(=O)(=O)O)[C@H]7OS(=O)(=O)O)[C@H](OS(=O)(=O)O)[C@H]6OS(=O)(=O)O)[C@H](OS(=O)(=O)O)[C@H]5OS(=O)(=O)O)CC[C@]4(C)[C@H]3CC[C@]12C [PG545, reference compound]",post-transplant serum HS levels compared to PBS,[2]; PG545 20 mg/kg s.c. once per week from one day prior to transplant,higher
same,rate of GVHD (survival analysis),"[2]; PG545 20 mg/kg s.c. weekly, PBS 29, p<0.001",21 days
same,percentage of proliferating donor CD8 T cells (BrdU uptake),"[2]; post-transplant day 6, PG545 20 mg/kg s.c. weekly, PBS 12.9±2.0, n=3, p<0.05",23.2±2.3
"A1AT: α1-antitrypsin (Aralast, Baxter), serum serine protease inhibitor",GVHD pathology scores (ear skin),"[2]; 3 weeks post-transplant, vs PBS",significantly lower
same,survival (MST),"[2]; A1AT 2 mg i.p. every 3 days, PBS controls 28.0, p<0.001",48.5 days
same,GVHD clinical score curve,"[2]; Allo-BM+LC recipients, 10-point scale, p=0.03",significantly lower
same,survival in TLR4−/− recipients compared to PBS treated TLR4−/− mice,"[2]; TLR4−/− BALB/c recipients of B10.D2 Allo-BM+LC, p=0.30",no further survival benefit
same,serum HS levels compared to PBS,"[2]; days 9 and 14 following HSCT, A1AT 2 mg i.p. every 3 days from 1 day prior to transplant",significantly lower
same,BrdU incorporation by donor Thy1.1+ T cells,[2]; [4],significantly reduced
same,IFN-γ production by donor Thy1.1+ T cells,[2]; [4],significantly reduced
same,survival compared with PBS treated group,[3],significant survival benefit
"HSP70: heat shock protein 70 (Assay Designs), a DAMP [reference compound]",alloreactive T cell proliferation compared to media alone,[1],significantly increased
Pam3CSK4 [reference compound],upregulation of CD40 and CD80 on MyD88−/− DCs,BALB/c DCs,but not on MyD88^−/− DCs
same,upregulation of CD40 and CD80 on TLR4−/− DCs,BALB/c DCs,able to upregulate
same,upregulation of CD40 and CD80 on WT DCs,BALB/c DCs,able to upregulate
"polymyxin B [PMB, reference compound]",effect on LPS-induced proliferation,"[1]; PMB 10 ug/mL, LPS 100 ng/mL",significant decrease
